Drawing on patent US6875760B2 (Novo Nordisk A/S, priority 1999, dated 2005), this text covers IC50 for 31 compounds.

Like-named read-outs stand apart in the source and are kept apart here.

The target of this experiment is T1, human glucagon receptor (Homo sapiens, UniProt P47871).
T1 construct: expressed in transfected cells; host or cells: BHK (baby hamster kidney) cells
Description: Glucagon Binding Assay (III). The essentials: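 Membranes from BHK cells transfected with the human receptor, prepared at 4 °C, were used in a WGA-bead scintillation proximity binding format. Plates were shaken for 4 hours, left to settle 8–48 hours and then counted. Non-specific binding was defined with 500 nM glucagon.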

[1] abbreviates: BHK cell membranes, WGA SPA beads, 125I-glucagon, read-out: Glu Bd Assay (III) IC50.

T1 sequence (P47871 26-477): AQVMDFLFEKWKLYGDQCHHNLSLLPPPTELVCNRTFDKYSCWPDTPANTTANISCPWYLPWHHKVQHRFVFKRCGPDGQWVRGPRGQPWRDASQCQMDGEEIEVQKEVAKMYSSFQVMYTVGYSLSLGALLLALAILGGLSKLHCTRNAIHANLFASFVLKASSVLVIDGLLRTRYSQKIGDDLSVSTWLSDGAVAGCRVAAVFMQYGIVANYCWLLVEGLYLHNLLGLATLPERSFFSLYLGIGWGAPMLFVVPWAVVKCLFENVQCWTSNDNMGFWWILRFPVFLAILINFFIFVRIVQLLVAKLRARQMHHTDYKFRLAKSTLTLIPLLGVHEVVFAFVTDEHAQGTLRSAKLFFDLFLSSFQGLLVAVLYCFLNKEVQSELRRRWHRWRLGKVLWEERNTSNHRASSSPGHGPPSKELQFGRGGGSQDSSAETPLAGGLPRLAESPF

As to `CCCCc1ccc(N(Cc2ccc(C(=O)Nc3nn[nH]n3)cc2)C(=O)Nc2cccc([N+](=O)[O-])c2)cc1` [Example 288, 4-[1-(4-Butylphenyl)-3-(3-nitrophenyl)ureidomethyl]-N-(2H-tetrazol-5-yl)benzamide], the IC50 under setting [1] is 75 nM. Same read-out and setting: as for `CCSc1cccc(NC(=O)N(Cc2ccc(C(=O)Nc3nn[nH]n3)cc2)c2ccc(C3CCCCC3)cc2)c1` [Example 289, 4-[1-(4-Cyclohexylphenyl)-3-(3-ethylsulfanylphenyl)ureidomethyl]-N-(2H-tetrazol-5-yl)benzamide], the figure is 27 nM; as for `CCC(C)c1ccc(N(Cc2ccc(C(=O)Nc3nn[nH]n3)cc2)C(=O)Nc2cc(C(=O)OC)cc(C(=O)OC)c2)cc1` (stereo not shown) [Example 290], 101 nM; as for `O=C(Nc1nn[nH]n1)c1ccc(CN(C(=O)Nc2ccc(OC(F)(F)F)cc2)c2ccc(C3CCCCC3)cc2)cc1` [Example 291, 4-[1-(4-Cyclohexylphenyl)-3-(4-trifluoromethoxyphenyl)ureidomethyl]-N-(2H-tetrazol-5-yl)benzamide], 42 nM.

Consider `CCCCc1ccc(N(Cc2ccc(C(=O)Nc3nn[nH]n3)cc2)C(=O)Nc2ccc(OC(F)(F)F)cc2)cc1` [Example 292, 4-[1-(4-Butylphenyl)-3-(4-trifluoromethoxyphenyl)ureidomethyl]-N-(2H-tetrazol-5-yl)benzamide], for which the IC50 under setting [1] amounted to 106 nM. The same measure, in the same setting: as for `CSc1cccc(NC(=O)N(Cc2ccc(C(=O)Nc3nn[nH]n3)cc2)c2ccc(C(C)(C)C)cc2)c1` [Example 293, 4-[1-(4-tert-Butylphenyl)-3-(3-methylsulfanylphenyl)ureidomethyl]-N-(2H-tetrazol-5-yl)benzamide], the figure is 45 nM. Still for that read-out and setting: as for `CC(C)(C)c1ccc(N(Cc2ccc(C(=O)Nc3nn[nH]n3)cc2)C(=O)Nc2cccc(C(F)(F)F)c2)cc1` [Example 294, 4-[1-(4-tert-Butylphenyl)-3-(3-trifluoromethylphenyl)ureidomethyl]-N-(2H-tetrazol-5-yl)benzamide], the figure is 50 nM. For the compound `CC(C)(C)c1ccc(N(Cc2ccc(C(=O)Nc3nn[nH]n3)cc2)C(=O)Nc2cccc(C#N)c2)cc1` [Example 295, 4-[1-(4-tert-Butylphenyl)-3-(3-cyanophenyl)ureidomethyl]-N-(2H-tetrazol-5-yl)benzamide], the IC50 under setting [1] is 279 nM. In the case of `CC(C)(C)c1ccc(N(Cc2ccc(C(=O)Nc3nn[nH]n3)cc2)C(=O)Nc2cccc(Cl)c2)cc1` [Example 296, 4-[1-(4-tert-Butylphenyl)-3-(3-chlorophenyl)ureidomethyl]-N-(2H-tetrazol-5-yl)benzamide], under setting [1], the IC50 turned out to be 304 nM. For `CC(=O)c1cccc(NC(=O)N(Cc2ccc(C(=O)Nc3nn[nH]n3)cc2)c2ccc(C(C)(C)C)cc2)c1` [Example 297, 4-[3-(3-Acetylphenyl)-1-(4-tert-butylphenyl)ureidomethyl]-N-(2H-tetrazol-5-yl)benzamide], under setting [1], the IC50 was found to be 87 nM. With `CSc1ccc(NC(=O)N(Cc2ccc(C(=O)Nc3nn[nH]n3)cc2)c2ccc(C3CCCCC3)cc2)cc1` [Example 298, 4-[1-(4-Cyclohexylphenyl)-3-(4-methylsulfanylphenyl)ureidomethyl]-N-(2H-tetrazol-5-yl)benzamide], under setting [1], the IC50 was 38 nM. The same measure, in the same setting: as for `O=C(Nc1nn[nH]n1)c1ccc(CN(C(=O)Nc2cccc(SCC3CC3)c2)c2ccc(C3CCCCC3)cc2)cc1` [Example 299, 4-[1-(4-Cyclohexylphenyl)-3-(3-cyclopropylmethylsulfanylphenyl)ureidomethyl]-N-(2H-tetrazol-5-yl)benzamide], the figure is 171 nM; as for `O=C(Nc1nn[nH]n1)c1ccc(CN(C(=O)Nc2cccc(SC3CCCC3)c2)c2ccc(C3CCCCC3)cc2)cc1` [Example 300, 4-[1-(4-Cyclohexylphenyl)-3-(3-cyclopentylsulfanylphenyl)ureidomethyl]-N-(2H-tetrazol-5-yl)benzamide], 197 nM. The same measure, in the same setting: then `O=C(Nc1nn[nH]n1)c1ccc(CN(C(=O)Nc2ccc(SC(F)(F)F)cc2)c2ccc(C3CCCCC3)cc2)cc1` [Example 301, 4-[1-(4-Cyclohexylphenyl)-3-(4-trifluoromethylsulfanylphenyl)ureidomethyl]-N-(2H-tetrazol-5-yl)benzamide], with 35 nM; and `CSc1cccc(NC(=O)N(Cc2ccc(C(=O)Nc3nn[nH]n3)cc2)c2ccc(C3CCCCC3)cc2)c1` [Example 302, 4-[1-(4-Cyclohexylphenyl)-3-(3-methylsulfanylphenyl)ureidomethyl]-N-(2H-tetrazol-5-yl)benzamide], with 62 nM; and `O=C(Nc1nn[nH]n1)c1ccc(CN(C(=O)Nc2cccc(S(=O)(=O)C(F)(F)F)c2)c2ccc(C3CCCCC3)cc2)cc1` [Example 303, 4-[1-(4-Cyclohexylphenyl)-3-(3-trifluoromethylsulfonylphenyl)ureidomethyl]-N-(2H-tetrazol-5-yl)benzamide], with 53 nM. Still for that read-out and setting: as for `O=C(Nc1nn[nH]n1)c1ccc(CN(C(=O)Nc2cc(Cl)cc(Cl)c2)c2ccc(C3CCCCC3)cc2)cc1` [Example 304, 4-[1-(4-Cyclohexylphenyl)-3-(3,5-dichlorophenyl)ureidomethyl]-N-(2H-tetrazol-5-yl)benzamide], the figure is 45 nM; as for `Cc1ccc(NC(=O)N(Cc2ccc(C(=O)Nc3nn[nH]n3)cc2)c2ccc(C3CCCCC3)cc2)cc1S(C)(=O)=O` [Example 305, 4-[1-(4-Cyclohexylphenyl)-3-(3-methylsulfonyl-4-methylphenyl)ureidomethyl]-N-(2H-tetrazol-5-yl)benzamide], 55 nM; as for `CC(O)c1cccc(NC(=O)N(Cc2ccc(C(=O)Nc3nn[nH]n3)cc2)c2ccc(C3CCCCC3)cc2)c1` (stereo not shown) [Example 306, 4-{1-(4-Cyclohexylphenyl)-3-[3-(1-hydroxyethyl)phenyl]ureidomethyl}-N-(2H-tetrazol-5-yl)benzamide], 209 nM. For `O=C(Nc1nn[nH]n1)c1ccc(CN(C(=O)Nc2ccc(OC(F)(F)F)cc2)c2ccc(C3=CCCCC3)cc2)cc1` [Example 307, 4-[1-(4-Cyclohex-1-enylphenyl)-3-(4-trifluoromethoxyphenyl)ureidomethyl]-N-(2H-tetrazol-5-yl)benzamide], the IC50 under setting [1] came to 50 nM. Same read-out and setting: as for `O=C(Nc1nn[nH]n1)c1ccc(CN(C(=O)Nc2cccc([N+](=O)[O-])c2)c2ccc(C3=CCCCC3)cc2)cc1` [Example 308, 4-[1-(4-Cyclohex-1-enylphenyl)-3-(3-nitrophenyl)ureidomethyl]-N-(2H-tetrazol-5-yl)benzamide], the figure is 61 nM; as for `CC(O)c1cccc(NC(=O)N(Cc2ccc(C(=O)Nc3nn[nH]n3)cc2)c2ccc(C(C)(C)C)cc2)c1` (stereo not shown) [Example 309, 4-{1-(4-tert-Butylphenyl)-3-[3-(1-hydroxyethyl)phenyl]ureidomethyl}-N-(2H-tetrazol-5-yl)benzamide], 566 nM. With `CS(=O)(=O)c1cccc(NC(=O)N(Cc2ccc(C(=O)Nc3nn[nH]n3)cc2)c2ccc(C3=CCCCC3)cc2)c1` [Example 310, 4-[1-(4-Cyclohex-1-enylphenyl)-3-(3-methylsulfonylphenyl)ureidomethyl]-N-(2H-tetrazol-5-yl)benzamide], the IC50 under setting [1] came to 61 nM. Still for that read-out and setting: as for `CC(C)(C)[Si](C)(C)OCc1cc(NC(=O)N(Cc2ccc(C(=O)Nc3nn[nH]n3)cc2)c2ccc(C3CCCCC3)cc2)ccc1OC(F)(F)F` [Example 311, 4-[3-[3-(tert-Butyldimethylsilanyloxymethyl)-4-trifluoromethoxyphenyl]-1-(4-cyclohexylphenyl)ureidomethyl]-N-(2H-tetrazol-5-yl)benzamide], the figure is 32 nM; as for `CC(C)(C)c1ccc(N(Cc2ccc(C(=O)Nc3nn[nH]n3)cc2)C(=O)Nc2ccc(OC(F)(F)F)c(S(C)(=O)=O)c2)cc1` [Example 312, 4-[1-(4-tert-Butylphenyl)-3-(3-methylsulfonyl-4-trifluoromethoxyphenyl)ureidomethyl]-N-(2H-tetrazol-5-yl)benzamide], 46 nM; as for `CC(C)(C)C1CCC(N(Cc2ccc(C(=O)Nc3nn[nH]n3)cc2)C(=O)Nc2ccc(OC(F)(F)F)c(S(C)(=O)=O)c2)CC1` (stereo not shown) [Example 313, 4-[1-(4-tert-Butylcyclohexyl)-3-(3-methylsulfonyl-4-trifluoromethoxyphenyl)ureidomethyl]-N-(2H-tetrazol-5-yl)benzamide], 18 nM. The same measure, in the same setting: as for `CS(=O)(=O)c1cc(NC(=O)N(Cc2ccc(C(=O)Nc3nn[nH]n3)cc2)c2ccc(C3CCCCC3)cc2)ccc1OC(F)(F)F` [Example 314, 4-[1-(4-Cyclohexylphenyl)-3-(3-methylsulfonyl-4-trifluoromethoxyphenyl)ureidomethyl]-N-(2H-tetrazol-5-yl)benzamide], the figure is 62 nM. Turning to `CS(=O)(=O)c1cc(NC(=O)N(Cc2ccc(C(=O)Nc3nn[nH]n3)cc2)c2ccc(C3=CCCCC3)cc2)ccc1OC(F)(F)F` [Example 315, 4-[1-(4-Cyclohex-1-enylphenyl)-3-(3-methylsulfonyl-4-trifluoromethoxyphenyl)ureidomethyl]-N-(2H-tetrazol-5-yl)benzamide], the IC50 (value printed in the text of Example 315, read-out: Glu bd assay III) came out at 22 nM.

As for `O=C(Nc1nn[nH]n1)c1ccc(CN(C(=O)Nc2cc(Cl)cc(Cl)c2)c2ccc(N3CCCCC3)cc2)cc1` [Example 316, 4-[3-(3,5-Dichlorophenyl)-1-(4-piperidin-1-ylphenyl)ureidomethyl]-N-(2H-tetrazol-5-yl)benzamide], the IC50 under setting [1] amounted to 547 nM.

`CSc1cccc(NC(=O)N(Cc2ccc(C(=O)Nc3nn[nH]n3)cc2)c2ccc(N3CCCCC3)cc2)c1` [Example 317, 4-[3-(3-Methylsulfanylphenyl)-1-(4-piperidin-1-ylphenyl)ureidomethyl]-N-(2H-tetrazol-5-yl)benzamide]: the IC50 under setting [1] is 788 nM. Regarding `O=C(Nc1nn[nH]n1)c1ccc(CN(C(=O)Nc2ccc(OC(F)(F)F)cc2)c2ccc(N3CCCCC3)cc2)cc1` [Example 318, 4-[1-(4-Piperidin-1-ylphenyl)-3-(4-trifluoromethoxyphenyl)ureidomethyl]-N-(2H-tetrazol-5-yl)benzamide], the IC50 under setting [1] was 247 nM.
